Converted amounts (≈) assume the structure as drawn.
Assays:
[1] = Kinetic solubility of compound at pH 7.4 by nephelometry; assay type: physicochemical; settings: buffer
Rattus norvegicus [2] = assay: Inhibition of haloperidol-induced catalepsy in rat at 3 mg/kg, po after 4 hrs; assay type: functional
Adenosine receptor A2a = Adenosine receptor A2a (Homo sapiens, UniProt P29274)
Description: Antagonist activity at human adenosine A2A receptor

Rattus norvegicus [3] = assay: Inhibition of haloperidol-induced catalepsy in rat at 1 mg/kg, po after 1 hr; assay type: functional
Rattus norvegicus [4] = assay: Inhibition of haloperidol-induced catalepsy in rat at 1 mg/kg, po after 4 hrs; assay type: functional
[5] = AUC (0 to 6 hrs) in rat at 3 mg/kg, po; assay type: ADME, organism-based; set-up: time < 6 hr, dose 3 mg/kg, route oral; settings: plasma
Rattus norvegicus [6] = assay: Inhibition of haloperidol-induced catalepsy in rat at 3 mg/kg, po after 1 hr; assay type: functional
Rattus norvegicus [7] = assay: Inhibition of haloperidol-induced catalepsy in rat at 1 or 3 mg/kg, po after 1 hr; assay type: functional
Rattus norvegicus [8] = assay: Inhibition of haloperidol-induced catalepsy in rat at 1 or 3 mg/kg, po after 4 hrs; assay type: functional

Chain of Adenosine receptor A2a (P29274 whole entry): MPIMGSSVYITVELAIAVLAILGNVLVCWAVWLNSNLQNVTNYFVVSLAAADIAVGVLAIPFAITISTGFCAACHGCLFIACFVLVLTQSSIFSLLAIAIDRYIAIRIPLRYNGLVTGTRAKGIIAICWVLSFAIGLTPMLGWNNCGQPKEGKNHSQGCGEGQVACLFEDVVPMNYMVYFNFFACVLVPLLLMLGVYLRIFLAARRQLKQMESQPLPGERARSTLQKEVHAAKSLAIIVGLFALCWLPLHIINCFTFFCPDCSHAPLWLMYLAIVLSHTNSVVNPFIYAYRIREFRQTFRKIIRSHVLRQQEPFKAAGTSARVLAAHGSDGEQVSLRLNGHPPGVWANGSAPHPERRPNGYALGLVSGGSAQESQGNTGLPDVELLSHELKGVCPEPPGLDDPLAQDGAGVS

With `COc1ccc(-c2ccc(CCn3ncc4c3nc(N)n3nc(-c5ccco5)nc43)cc2)cn1` as the molecule, how does the solubility kinetic [1] read?
The solubility kinetic was < 5 µM.

What about the inhibition in vivo at 3 mg/kg (Rattus norvegicus [2]) of the same molecule?
Its inhibition in vivo at 3 mg/kg is 0%.

What about the Ki (Adenosine receptor A2a) of the same molecule?
Its Ki is 1.9 nM.

Which results are given for `COc1ccc(-c2ccc(CCn3ncc4c3nc(N)n3nc(-c5ccco5)nc43)cc2)cc1`?
solubility kinetic [1]: < 5 µM; inhibition in vivo at 1 mg/kg (Rattus norvegicus [3]): 30%; inhibition in vivo at 1 mg/kg (Rattus norvegicus [4]): 5%; Ki (Adenosine receptor A2a): 0.5 nM

For `Nc1nc2c(cnn2CCc2ccc(-c3ccccc3)cc2)c2nc(-c3ccco3)nn12`, which Ki (Adenosine receptor A2a) is on record?
Its Ki is 1.1 nM.

With `CC(c1ccc2cc(CCn3ncc4c3nc(N)n3nc(-c5ccco5)nc43)ccc2n1)N1CCOCC1` (stereo not given) as the molecule, how does the solubility kinetic [1] read?
Its solubility kinetic is 100 µM (≈ 51 µg/mL).

And the AUC(0-t) at 6 h [5]?
Its AUC(0-t) at 6 h is 7490 ng·h/mL.

What about the inhibition in vivo at 3 mg/kg (Rattus norvegicus [6]) of the same molecule?
The inhibition in vivo at 3 mg/kg was 28%.

What about the inhibition in vivo at 3 mg/kg (Rattus norvegicus [2]) of the same molecule?
Its inhibition in vivo at 3 mg/kg is 13%.

What about the Ki (Adenosine receptor A2a) of the same molecule?
Its Ki is 1.3 nM.

Which Ki (Adenosine receptor A2a) does the source give for `COCCOC(C)c1ccc2cc(CCn3ncc4c3nc(N)n3nc(-c5ccco5)nc43)ccc2n1` (stereo not given) here?
The Ki was 1.5 nM.

With `Nc1nc2c(cnn2CCc2ccc(-c3cccnc3)cn2)c2nc(-c3ccco3)nn12` as the molecule, how does the Ki (Adenosine receptor A2a) read?
The Ki was 11.4 nM.

Which solubility kinetic [1] does the source give for `Cc1ccc2cc(CCn3ncc4c3nc(N)n3nc(-c5ccco5)nc43)ccc2n1` here?
Its solubility kinetic is 6 µM (≈ 2.46 µg/mL).

And the AUC(0-t) at 6 h [5]?
Its AUC(0-t) at 6 h is 1400 ng·h/mL.

What about the inhibition in vivo at 3 mg/kg (Rattus norvegicus [6]) of the same molecule?
The inhibition in vivo at 3 mg/kg was 86%.

What about the inhibition in vivo at 3 mg/kg (Rattus norvegicus [2]) of the same molecule?
Its inhibition in vivo at 3 mg/kg is 38%.

What about the Ki (Adenosine receptor A2a) of the same molecule?
Its Ki is 2.4 nM.

Which results are given for `Nc1nc2c(cnn2CCc2ccc3nc(N4CCOCC4)ccc3c2)c2nc(-c3ccco3)nn12`?
AUC(0-t) at 6 h [5]: 6 ng·h/mL; Ki (Adenosine receptor A2a): 1.8 nM

With `Nc1nc2c(cnn2CCc2cccc(-c3cccnc3)c2)c2nc(-c3ccco3)nn12` as the molecule, how does the Ki (Adenosine receptor A2a) read?
The Ki was 5.5 nM.

Which results are given for `Nc1nc2c(cnn2CCc2ccc(-c3cnccn3)cc2)c2nc(-c3ccco3)nn12`?
solubility kinetic [1]: < 4 µM; AUC(0-t) at 6 h [5]: 114 ng·h/mL; inhibition in vivo at 3 mg/kg (Rattus norvegicus [2]): 3%; Ki (Adenosine receptor A2a): 0.9 nM

Which AUC(0-t) at 6 h [5] does the source give for `Nc1nc2c(cnn2CCc2ccc3nc(CN4CCOCC4)ccc3c2)c2nc(-c3ccco3)nn12` here?
The AUC(0-t) at 6 h was 656 ng·h/mL.

And the inhibition in vivo at 3 mg/kg (Rattus norvegicus [6])?
Its inhibition in vivo at 3 mg/kg is 0%.

What about the inhibition in vivo at 3 mg/kg (Rattus norvegicus [2]) of the same molecule?
Its inhibition in vivo at 3 mg/kg is 0%.

What about the Ki (Adenosine receptor A2a) of the same molecule?
The Ki was 2.3 nM.

With `Nc1nc2c(cnn2CCc2ccc3nc(C(=O)N4CCOCC4)ccc3c2)c2nc(-c3ccco3)nn12` as the molecule, how does the solubility kinetic [1] read?
The solubility kinetic was 100 µM (≈ 51 µg/mL).

And the inhibition in vivo at 3 mg/kg (Rattus norvegicus [6])?
The inhibition in vivo at 3 mg/kg was 23%.

What about the inhibition in vivo at 3 mg/kg (Rattus norvegicus [2]) of the same molecule?
Its inhibition in vivo at 3 mg/kg is 13%.

What about the Ki (Adenosine receptor A2a) of the same molecule?
Its Ki is 1.6 nM.

With `Nc1nc2c(cnn2CCc2ccc(-c3ccc(OC(F)(F)F)cc3)cc2)c2nc(-c3ccco3)nn12` as the molecule, how does the solubility kinetic [1] read?
The solubility kinetic was < 5 µM.

And the AUC(0-t) at 6 h [5]?
The AUC(0-t) at 6 h was 67 ng·h/mL.

And the inhibition in vivo at 3 mg/kg (Rattus norvegicus [7])?
Its inhibition in vivo at 3 mg/kg is 20%.

And the inhibition in vivo at 3 mg/kg (Rattus norvegicus [8])?
Its inhibition in vivo at 3 mg/kg is 0%.

What about the Ki (Adenosine receptor A2a) of the same molecule?
Its Ki is 7.8 nM.

With `Cc1ccc(-c2ccc(CCn3ncc4c3nc(N)n3nc(-c5ccco5)nc43)cc2)cn1` as the molecule, how does the solubility kinetic [1] read?
The solubility kinetic was < 5 µM.

And the AUC(0-t) at 6 h [5]?
Its AUC(0-t) at 6 h is 199 ng·h/mL.

What about the inhibition in vivo at 3 mg/kg (Rattus norvegicus [7]) of the same molecule?
The inhibition in vivo at 3 mg/kg was 60%.

What about the inhibition in vivo at 3 mg/kg (Rattus norvegicus [8]) of the same molecule?
The inhibition in vivo at 3 mg/kg was 25%.

And the Ki (Adenosine receptor A2a)?
The Ki was 0.6 nM.

For `Nc1nc2c(cnn2CCc2ccc(-c3cccnc3)cc2)c2nc(-c3ccco3)nn12`, which solubility kinetic [1] is on record?
Its solubility kinetic is < 4 µM.

And the AUC(0-t) at 6 h [5]?
Its AUC(0-t) at 6 h is 351 ng·h/mL.

What about the inhibition in vivo at 1 mg/kg (Rattus norvegicus [3]) of the same molecule?
Its inhibition in vivo at 1 mg/kg is 40%.

What about the inhibition in vivo at 1 mg/kg (Rattus norvegicus [4]) of the same molecule?
The inhibition in vivo at 1 mg/kg was 25%.

What about the Ki (Adenosine receptor A2a) of the same molecule?
The Ki was 1.5 nM.

Which solubility kinetic [1] does the source give for `CCc1ccc2cc(CCn3ncc4c3nc(N)n3nc(-c5ccco5)nc43)ccc2n1` here?
Its solubility kinetic is < 2.5 µM.

And the AUC(0-t) at 6 h [5]?
Its AUC(0-t) at 6 h is 450 ng·h/mL.

What about the inhibition in vivo at 3 mg/kg (Rattus norvegicus [6]) of the same molecule?
Its inhibition in vivo at 3 mg/kg is 43%.

And the inhibition in vivo at 3 mg/kg (Rattus norvegicus [2])?
Its inhibition in vivo at 3 mg/kg is 38%.

What about the Ki (Adenosine receptor A2a) of the same molecule?
The Ki was 2.7 nM.
